PMC7490411 (Signal Transduction and Targeted Therapy, 2020)

Columns and labels:
Mino cells = test: NK-cell-mediated ADCC, LDH release cytotoxicity assay, Rituximab; assay type: cell-based, human
Description: (§1) The cytotoxicity of NK cells was measured using the CyQUANT™ LDH Cytotoxicity Assay Kit (Invitrogen™, #C20300) according to the manufacturer’s instructions. Briefly, enriched NK cells (6 × 10^5 /ml) were cultured with the same volume of Mino cell and SK-OV-3 cell (1-2 × 10^4 /ml) in a 96-well plate for 4 h with Rituximab and Herceptin (10 μg/mL) and CHMFL-BTK-85 or PCI32765 at 37°C in a humidified CO2 incubator prior to removal of the supernatant for lactate dehydrogenase (LDH) release measurements. Calculate % Cytotoxicity by using the following formula: %Cytotoxicity = (Compound-treated LDH activity-Spontaneous LDH activity)/(Maximum LDH activity-Spontaneous LDH activity)*100.

SK-OV-3 cells = test: NK-cell-mediated ADCC, LDH release cytotoxicity assay, Herceptin; assay type: cell-based, human
Description: as §1

DOHH2 = test: anti-proliferative CellTiter-Glo assay; assay type: cell-based; conditions: Homo sapiens, DOHH-2; DOHH2, 72 h
Description: (§2) Cell viability was measured using the CellTiter–Glo assay (Promega, USA) according to the manufacturer’s instructions, and […] was measured in a Bio-red Microplate reader (Bio-Red, USA).

JEKO-1 = test: anti-proliferative CellTiter-Glo assay; assay type: cell-based; conditions: Homo sapiens, JeKo-1, 72 h
Description: as §2

Pfeiffer = test: anti-proliferative CellTiter-Glo assay; assay type: cell-based; conditions: Homo sapiens, 72 h
Description: as §2

REC-1 = test: anti-proliferative CellTiter-Glo assay; assay type: cell-based; conditions: Homo sapiens, Rec1; REC-1, 72 h
Description: as §2

Raji = test: anti-proliferative CellTiter-Glo assay; assay type: cell-based; conditions: Homo sapiens, 72 h
Description: as §2

Ramos = test: anti-proliferative CellTiter-Glo assay; assay type: cell-based; conditions: Homo sapiens, 72 h
Description: as §2

SU-DHL-2 = test: anti-proliferative CellTiter-Glo assay; assay type: cell-based; conditions: Homo sapiens, SU-DHL-2, 72 h
Description: as §2

SU-DHL-6 = test: anti-proliferative CellTiter-Glo assay; assay type: cell-based; conditions: Homo sapiens, SU-DHL-6, 72 h
Description: as §2

TMD8 = test: anti-proliferative CellTiter-Glo assay; assay type: cell-based; conditions: Homo sapiens, TMD8, 72 h
Description: as §2

U2932 = test: anti-proliferative CellTiter-Glo assay; assay type: cell-based; conditions: Homo sapiens, U2932, 72 h
Description: as §2

WSU-DLCL2 = test: anti-proliferative CellTiter-Glo assay; assay type: cell-based; conditions: Homo sapiens, WSUDLCL2; WSU-DLCL2, 72 h
Description: as §2

[1] = tested on: TMD8 cell (DLBCL)-inoculated xenograft; test: TMD8 cell subcutaneous xenograft tumor model; assay type: in vivo; conditions: TMD8 xenograft, 100 mg/kg/day, 28 days
[2] = tested on: REC-1 cell (MCL)-inoculated xenograft; test: REC-1 cell subcutaneous xenograft tumor model; assay type: in vivo; conditions: REC-1 xenograft, 100 mg/kg/day, 14 days
[3] = drug enrichment in the tumor; assay type: in vivo, mouse; conditions: 100 mg/kg
[4] = tested on: REC-1 cells bone marrow engraftment; test: REC-1 cells bone marrow engrafted mouse model; assay type: in vivo; conditions: REC-1 bone marrow engraftment, 100 mg/kg/day p.o.
Description: Five-week old female NOD-SCID mice were purchased from the Beijing Vital River Laboratory Animal Technology Co., Ltd (Beijing, China). All animals were housed in a specific pathogen free facility and used according to the animal care regulations of Hefei Institutes of Physical Science, Chinese Academy of Sciences. NOD-SCID mice were induced by intraperitoneal injection of cyclophosphamide (CTX) 50 mg/kg daily for two days. 8 million REC-1 cells in 0.3 mL RPMI1640 medium were injected by intravenous after 24 h. […] Mice were monitored daily and were euthanized when moribund or at early signs of hind limb paralysis.

SMILES | effect on antibody-dependent NK-cell-mediated cytotoxicity (ADCC) (Mino cells) | effect on antibody-dependent NK-cell-mediated cytotoxicity (ADCC) (SK-OV-3 cells) | GI50 (DOHH2) [nM] | GI50 (JEKO-1) [nM] | GI50 (Pfeiffer) [nM] | GI50 (REC-1) [nM] | GI50 (Raji) [µM] | GI50 (Ramos) [µM] | GI50 (SU-DHL-2) [µM] | GI50 (SU-DHL-6) [nM] | GI50 (TMD8) [nM] | GI50 (U2932) [nM] | GI50 (WSU-DLCL2) [nM] | TGI [1] [%] | TGI [2] [%] | concentration in the tumor [3] [µM] | median survival time [4] [days]
C=CC(=O)N1CCC[C@@H](n2nc(-c3ccc(Oc4ccccc4)cc3)c3c(N)ncnc32)C1 [Ibrutinib, reference compound] | significantly impaired | significantly impaired | 260 ± 180 | 2000 ± 150 | 1200 ± 120 | 30 ± 21 | 6.1 ± 1.8 | 3.8 ± 0.66 | 4.9 ± 0.2 | 370 ± 55 | 1 ± 0.1 | 1400 ± 1200 | 180 ± 100 | 90 | 59 | 1.23 | 39
CC#CC(=O)N1CCC[C@H]1c1nc(-c2ccc(C(=O)Nc3ccccn3)cc2)c2c(N)nccn12 [Acalabrutinib] |  |  |  |  |  | 30 ± 2 |  |  |  |  | 20 ± 3 |  |  |  | 58 | 1.30 | 
